The values below come from US20050096370A1, “Method for inhibiting tumor angiogenesis and tumor growth” (Bizbiotech Co., Ltd., priority 2003, published 2005).

The assay relates to human cancer xenografts (Hep3B, NCI-H87, SiHa, SK-N-MC, Caki-1). The assay is described as follows: counts of HIF-1α-positive cells and CD31-positive vessels in xenograft tumor sections. It is filed as in vivo, nude mice. To be noted: regardless of cell origin, treated 2 weeks, P<0.01. Here is the method:
FIG. 10 is a histogram showing HIF-1α expression detected by immunohistochemistry in human cancer xenografts derived from Hep3B hepatoma, NCI-H87 gastric carcinoma, SiHa cervical carcinoma, SK-N-MC neuroblastoma, or Caki-1 renal carcinoma cells. Male nude mice were injected subcutaneously in the flank with 5×10^6 viable tumor cells. […] After the last treatment, the mice were euthanized, the tumors removed, fixed with formalin, embedded in paraffin and processed for hinmunohistochemistry to detect HIF-1α-positive cells. […] Each bar represents the mean with lower or upper 95% confidence interval. Differences between treatment groups were compared using a Mann-Whitney U test. […]
FIG. 11 is a histogram showing vascular density detected by immunohistochemistry in human cancer xenografts derived from Hep3B hepatoma, NCI-H87 gastric carcinoma, SiHa cervical carcinoma, SK-N-MC neuroblastoma, or Caki-1 renal carcinoma cells. […]
We further quantified the numbers of HIF-1α-positive cells and CD31-positive vessels in tumor sections from vehicle- and YC-1-treated mice. […] The expression of HIF-1α and the vessel density were measured by counting the numbers of immunopositive cells and vessel profiles (identified by CD31 staining) per mm^2 under microscopic images. We analyzed ten or more different lesions per xenograft tumor.

Regarding `OCc1ccc(-c2nn(Cc3ccccc3)c3ccccc23)o1` [YC-1, 3-(5′-hydroxymethyl-2′-furyl)-1-benzylindazole], the “blood vessel formation (CD31 vessel profiles per mm^2)” value is listed as “statistically significantly inhibited” and the “expression of HIF-1α protein (immunopositive cells per mm^2)” value was “statistically significantly inhibited”.
